# According to PMC12794188, “Maternal–Fetal Transfer and Toxicokinetics of 2,2′,5,5′-Tetrachlorobiphenyl, [^14C]-PCB52, Following Intratracheal Administration” (Chemical Research in Toxicology, 2025):
# Experiment: Toxicokinetics and tissue disposition of total [14C] radioactivity after a single intratracheal dose of [14C]-PCB52 (0.157 mg/kg) in pregnant rats at GD 11±1
# Type: in vivo, Sprague–Dawley rats
# Procedure: Female Sprague–Dawley rats (8 weeks old) weighing 237–269.7 g (mean = 247.5 g) (Envigo RMS, LLC, Indianapolis, IN) were used for this study. All animal experiments were performed following the protocols evaluated and approved by the University of Iowa Institutional Animal Care and Use Committee (approval number 3091097). After arrival, the animals were acclimated for 7 days. The animals were housed in a light and temperature-controlled environment with ad libitum access to food and water during quarantine and throughout the study. Timed pregnancy was achieved by harem mating. , Briefly, one male and two female rats were placed together in the evening and checked for vaginal plug the following day. If vaginal plug was present, the male was removed from the breeding cage, and the gestation day 0 (GD 0), 0-day post coitum was assigned. Pregnancies were confirmed by ultrasound scan at GD 9. The dams were exposed at GD 11 (±1 day) to capture the period of early organogenesis and hormonal function, which falls within week 3 of human embryonic development. ,− On the day of the experiment, pregnant rats were intratracheally administered an average of 40 μg (range, 35–45 μg) of [^14C]-PCB52 in 100 μL of exposure solution. Although the dose used in this study exceeded the tolerable daily intake (TDI) of PCBs for healthy individuals, which is 1.6 μg per day for an individual weighing 80 kg, the use of higher acute doses has been established in toxicological studies intended for risk assessment. The intratracheal instillation method was chosen for administering [^14C]-PCB52 to represent inhalation exposures, capture exhaled concentration, and efficiently utilize the limited availability of the cost-intensive radiolabeled PCB52. , Although inhalation exposure would better represent real-world exposures to airborne LC-PCBs, it would not allow us to accurately measure the amount of PCB52 exhaled into the air after exposure and is experimentally infeasible. […] All intratracheal instillations were done under light anesthesia, achieved using a 4% isoflurane concentration via a Fortec vaporizer (Cyprane, Keighley, UK). The animals recovered from anesthesia within 1 min. Subsequently, the animals were housed within a cylindrical glass chamber measuring 2 L in volume, equipped with glass drainage mechanisms to facilitate urine collection and a metallic screen to segregate urine from feces (as in Figure S1). Air was drawn from the chamber at 6.0 L/min through a cartridge containing the XAD-2 polymeric resin to capture any exhaled [^14C]-PCB52. For periods longer than 24 h postexposure, exposed dams were placed in a metabolic cage, which was fitted with a cartridge containing XAD-2 to capture exhaled [^14C]-PCB52 as in other end points.
# Maternal blood, urine, and feces samples were collected immediately before and at 0.21, 1.67, 12, 24, 48, and 96 h after lung dosing. The exposed dams were euthanized using 4% isoflurane, followed by cervical dislocation and exsanguination via a cardiac puncture. Euthanasia was consistently performed during the light cycle. Dams’ fur was wiped and analyzed for radioactivity. Using the retro-orbital blood collection method, 0.5–1.5 mL ([…] of an exposed pregnant rat’s body weight) of blood sample was collected from each of the dams until the individual dams were necropsied for whole-body tissue harvesting. At the end of the exposure period, the chamber’s interior walls were rinsed separately with water and acetone/hexane (25 – 45 mL) and wiped to measure residues. From the collected whole blood samples, 100 μL were aliquoted into three vials each, and the remaining blood was allowed to clot at room temperature before being centrifuged to yield serum. The placentas, developing fetuses, and whole-body tissue samples were harvested immediately before exposure and at 0.21, 1.67, 12, 24, and 96 h postexposure. […]
# [1] = Salivary gland, 0.21 h post-exposure
# [2] = Salivary gland, 1.67 h post-exposure
# [3] = Salivary gland, 12 h post-exposure
# [4] = Salivary gland, 24 h post-exposure
# [5] = Salivary gland, 96 h post-exposure
# [6] = mammary gland/MS (maternal serum)
# [7] = ratios of toxicokinetic parameters
smiles,measurement,setting,value
"Clc1ccc(Cl)c(-c2cc(Cl)ccc2Cl)c1 [PCB52, 2,2′,5,5′-Tetrachlorobiphenyl]",Percent tissue distribution,"Ovary, 0.21 h post-exposure",0.20%
same,Conc. per mg wet tissue,"Ovary, 1.67 h post-exposure",7.08 dpm/mg
same,Percent tissue distribution,"Ovary, 1.67 h post-exposure",0.08%
same,Conc. per mg wet tissue,"Ovary, 12 h post-exposure",1.61 dpm/mg
same,Percent tissue distribution,"Ovary, 12 h post-exposure",0.02%
same,Conc. per mg wet tissue,"Ovary, 24 h post-exposure",5.24 dpm/mg
same,Percent tissue distribution,"Ovary, 24 h post-exposure",0.05%
same,Percent tissue distribution,"Ovary, 96 h post-exposure",0.02%
same,AUC_%Extrap,Pancreas,37.26%
same,Terminal elimination half-life (t1/2),Pancreas,67.74 h
same,Conc. per mg wet tissue,"Pancreas, 0.21 h post-exposure",14.81 dpm/mg
same,Percent tissue distribution,"Pancreas, 0.21 h post-exposure",0.91%
same,Conc. per mg wet tissue,"Pancreas, 1.67 h post-exposure",4.88 dpm/mg
same,Percent tissue distribution,"Pancreas, 1.67 h post-exposure",0.39%
same,Conc. per mg wet tissue,"Pancreas, 12 h post-exposure",1.83 dpm/mg
same,Percent tissue distribution,"Pancreas, 12 h post-exposure",0.07%
same,Conc. per mg wet tissue,"Pancreas, 24 h post-exposure",5.17 dpm/mg
same,Percent tissue distribution,"Pancreas, 24 h post-exposure",0.30%
same,Conc. per mg wet tissue,"Pancreas, 96 h post-exposure",38.84 dpm/mg
same,Percent tissue distribution,"Pancreas, 96 h post-exposure",0.14%
same,Tmax,Pituitary gland,96 h
same,AUC_%Extrap,Rectal Amp.,62.17%
same,Terminal elimination half-life (t1/2),Rectal Amp.,133.61 h
same,AUC_%Extrap,Salivary gland,44.09%
same,Terminal elimination half-life (t1/2),Salivary gland,84.60 h
same,Tmax,Salivary gland,≤ 0.21 h
same,Conc. per mg wet tissue,[1],8.48 dpm/mg
same,Percent tissue distribution,[1],0.39%
same,Conc. per mg wet tissue,[2],2.93 dpm/mg
same,Percent tissue distribution,[2],0.18%
same,Conc. per mg wet tissue,[3],1.44 dpm/mg
same,Percent tissue distribution,[3],0.04%
same,Conc. per mg wet tissue,[4],2.06 dpm/mg
same,Percent tissue distribution,[4],0.06%
same,Conc. per mg wet tissue,[5],0.34 dpm/mg
same,Percent tissue distribution,[5],0.04%
same,AUC_%Extrap,Skin,30.85%
same,Terminal elimination half-life (t1/2),Skin,58.90 h
same,AUC_%Extrap,Small Intestine,25.66%
same,Terminal elimination half-life (t1/2),Small Intestine,47.33 h
same,AUC_%Extrap,Spleen,35.06%
same,Terminal elimination half-life (t1/2),Spleen,55.79 h
same,Conc. per mg wet tissue,"Spleen, 0.21 h post-exposure",13.12 dpm/mg
same,Percent tissue distribution,"Spleen, 0.21 h post-exposure",0.29%
same,Conc. per mg wet tissue,"Spleen, 1.67 h post-exposure",3.05 dpm/mg
same,Percent tissue distribution,"Spleen, 1.67 h post-exposure",0.12%
same,Conc. per mg wet tissue,"Spleen, 12 h post-exposure",2.62 dpm/mg
same,Percent tissue distribution,"Spleen, 12 h post-exposure",0.04%
same,Conc. per mg wet tissue,"Spleen, 24 h post-exposure",5.75 dpm/mg
same,Percent tissue distribution,"Spleen, 24 h post-exposure",0.07%
same,Conc. per mg wet tissue,"Spleen, 96 h post-exposure",0.87 dpm/mg
same,Percent tissue distribution,"Spleen, 96 h post-exposure",0.03%
same,AUC_%Extrap,Stomach,15.03%
same,Terminal elimination half-life (t1/2),Stomach,32.02 h
same,Tmax,Stomach,≤ 0.21 h
same,Conc. per mg wet tissue,"Stomach, 0.21 h post-exposure",36.55 dpm/mg
same,Percent tissue distribution,"Stomach, 0.21 h post-exposure",0.71%
same,Conc. per mg wet tissue,"Stomach, 1.67 h post-exposure",17.01 dpm/mg
same,Percent tissue distribution,"Stomach, 1.67 h post-exposure",0.23%
same,Conc. per mg wet tissue,"Stomach, 12 h post-exposure",4.80 dpm/mg
same,Percent tissue distribution,"Stomach, 12 h post-exposure",0.33%
same,Conc. per mg wet tissue,"Stomach, 24 h post-exposure",6.56 dpm/mg
same,Percent tissue distribution,"Stomach, 24 h post-exposure",0.44%
same,Conc. per mg wet tissue,"Stomach, 96 h post-exposure",2.28 dpm/mg
same,Percent tissue distribution,"Stomach, 96 h post-exposure",0.10%
same,AUC_%Extrap,Thymus,25.14%
same,Terminal elimination half-life (t1/2),Thymus,53.40 h
same,AUC_%Extrap,Thyroid,12.95%
same,Terminal elimination half-life (t1/2),Thyroid,37.74 h
same,Conc. per mg wet tissue,"Tongue, 0.21 h post-exposure",0.16 dpm/mg
same,Percent tissue distribution,"Tongue, 0.21 h post-exposure",0.67%
same,Conc. per mg wet tissue,"Tongue, 1.67 h post-exposure",4.42 dpm/mg
same,Percent tissue distribution,"Tongue, 1.67 h post-exposure",0.0003%
same,Conc. per mg wet tissue,"Tongue, 12 h post-exposure",1.08 dpm/mg
same,Percent tissue distribution,"Tongue, 12 h post-exposure",0.06%
same,Conc. per mg wet tissue,"Tongue, 24 h post-exposure",1.03 dpm/mg
same,Percent tissue distribution,"Tongue, 24 h post-exposure",0.05%
same,Conc. per mg wet tissue,"Tongue, 96 h post-exposure",0.16 dpm/mg
same,Percent tissue distribution,"Tongue, 96 h post-exposure",0.01%
same,Conc. per mg wet tissue,"Trachea, 0.21 h post-exposure",142.06 dpm/mg
same,Percent tissue distribution,"Trachea, 0.21 h post-exposure",0.83%
same,Conc. per mg wet tissue,"Trachea, 1.67 h post-exposure",40.98 dpm/mg
same,Percent tissue distribution,"Trachea, 1.67 h post-exposure",0.24%
same,Conc. per mg wet tissue,"Trachea, 12 h post-exposure",13.20 dpm/mg
same,Percent tissue distribution,"Trachea, 12 h post-exposure",0.08%
same,Conc. per mg wet tissue,"Trachea, 24 h post-exposure",6.29 dpm/mg
same,Percent tissue distribution,"Trachea, 24 h post-exposure",0.04%
same,Conc. per mg wet tissue,"Trachea, 96 h post-exposure",1.03 dpm/mg
same,Percent tissue distribution,"Trachea, 96 h post-exposure",0.01%
same,AUC_%Extrap,Uterus,17.37%
same,Terminal elimination half-life (t1/2),Uterus,34.85 h
same,Conc. per mg wet tissue,"Uterus, 0.21 h post-exposure",0.37 dpm/mg
same,Percent tissue distribution,"Uterus, 0.21 h post-exposure",0.21%
same,Conc. per mg wet tissue,"Uterus, 1.67 h post-exposure",2.43 dpm/mg
same,Percent tissue distribution,"Uterus, 1.67 h post-exposure",0.11%
same,Conc. per mg wet tissue,"Uterus, 12 h post-exposure",0.93 dpm/mg
same,Percent tissue distribution,"Uterus, 12 h post-exposure",0.06%
same,Conc. per mg wet tissue,"Uterus, 24 h post-exposure",2.20 dpm/mg
same,Percent tissue distribution,"Uterus, 24 h post-exposure",0.16%
same,Conc. per mg wet tissue,"Uterus, 96 h post-exposure",0.37 dpm/mg
same,Percent tissue distribution,"Uterus, 96 h post-exposure",0.13%
same,AUC_% extrap,amniotic fluid,7.8%
same,AUC_%Extrap,amniotic fluid,8.11%
same,Terminal elimination half-life (t1/2),amniotic fluid,26.38 h
same,maternal serum exposure ratio,amniotic fluid,0.05
same,AUC0–96h ratio,brain/MS (maternal serum),0.672
same,C max ratio,brain/MS (maternal serum),0.598
same,AUC0–96h ratio,brain/thyroid,0.276
same,C max ratio,brain/thyroid,0.298
same,concentration in brown adipose relative to white adipose,brown vs white adipose,five times higher
same,biological half-life,dams,less than 2 days
same,biological half-life,developing fetuses,less than 2 days
same,AUC0‑∞ ratio,fetus/AF (amniotic fluid),5.472
same,AUC0–96h ratio,fetus/AF (amniotic fluid),5.405
same,C max ratio,fetus/AF (amniotic fluid),5.767
same,AUC0–96h ratio,fetus/MS (maternal serum),0.100
same,C max ratio,fetus/MS (maternal serum),0.135
same,AUC0‑∞ ratio,fetus/mammary gland,46.45
same,AUC0–96h ratio,fetus/mammary gland,43.42
same,C max ratio,fetus/mammary gland,11.47
same,AUC0‑∞ ratio,fetus/ovary,0.078
same,AUC0–96h ratio,fetus/ovary,0.094
same,C max ratio,fetus/ovary,0.163
same,AUC0–96h ratio,fetus/pituitary,0.026
same,C max ratio,fetus/pituitary,0.052
same,AUC0‑∞ ratio,fetus/placenta,0.569
same,AUC0–96h ratio,fetus/placenta,0.538
same,C max ratio,fetus/placenta,0.778
same,AUC0‑∞ ratio,fetus/thymus,0.125
same,AUC0–96h ratio,fetus/thymus,0.152
same,C max ratio,fetus/thymus,0.314
same,AUC0‑∞ ratio,fetus/thyroid,8.805
same,AUC0–96h ratio,fetus/thyroid,8.445
same,C max ratio,fetus/thyroid,8.150
same,AUC0‑∞ ratio,[6],12.59
same,AUC0–96h ratio,[6],12.52
same,C max ratio,[6],2.822
same,AUC_% extrap,maternal serum,14.2%
same,blood-to-plasma ratio,observed experimental,0.53
same,AUC0–96h ratio,ovary/MS (maternal serum),3.043
same,C max ratio,ovary/MS (maternal serum),1.512
same,AUC0–96h ratio,pituitary/MS (maternal serum),11.289
same,C max ratio,pituitary/MS (maternal serum),4.741
same,AUC0–96h ratio,pituitary/thymus,5.933
same,C max ratio,pituitary/thymus,4.114
same,AUC_% extrap,placenta,4.1%
same,AUC_%Extrap,placenta,4.14%
same,Terminal elimination half-life (t1/2),placenta,21.11 h
same,maternal serum exposure ratio,placenta,0.5
same,AUC0‑∞ ratio,placenta/MS (maternal serum),0.477
same,AUC0–96h ratio,placenta/MS (maternal serum),0.536
same,C max ratio,placenta/MS (maternal serum),0.316
same,time at which brown/white adipose concentration ratio reached unity,postexposure,24 h
same,amniotic fluid-to-fetus ratio,[7],< 1
same,fetus-to-amniotic fluid ratio,[7],> 5
same,AUC0‑∞ ratio,thymus/MS (maternal serum),2.169
same,AUC0–96h ratio,thymus/MS (maternal serum),1.903
same,C max ratio,thymus/MS (maternal serum),1.152
same,AUC0‑∞ ratio,thyroid/MS (maternal serum),2.387
same,AUC0–96h ratio,thyroid/MS (maternal serum),2.435
same,C max ratio,thyroid/MS (maternal serum),2.005
same,AUC0‑∞ ratio,uterus/MS (maternal serum),0.917
same,AUC0–96h ratio,uterus/MS (maternal serum),0.888
same,C max ratio,uterus/MS (maternal serum),0.296
same,AUC0‑∞ ratio,uterus/ovary,0.262
same,AUC0–96h ratio,uterus/ovary,0.292
same,C max ratio,uterus/ovary,0.196
